We go through 54 compounds from ChEMBL document CHEMBL1151749, “Discovery of quinazolines as histamine H4 receptor inverse agonists using a scaffold hopping approach” (J Med Chem, 2008).

Sequence of Histamine H4 receptor (Rattus norvegicus, UniProt Q91ZY1) (Q91ZY1 whole entry): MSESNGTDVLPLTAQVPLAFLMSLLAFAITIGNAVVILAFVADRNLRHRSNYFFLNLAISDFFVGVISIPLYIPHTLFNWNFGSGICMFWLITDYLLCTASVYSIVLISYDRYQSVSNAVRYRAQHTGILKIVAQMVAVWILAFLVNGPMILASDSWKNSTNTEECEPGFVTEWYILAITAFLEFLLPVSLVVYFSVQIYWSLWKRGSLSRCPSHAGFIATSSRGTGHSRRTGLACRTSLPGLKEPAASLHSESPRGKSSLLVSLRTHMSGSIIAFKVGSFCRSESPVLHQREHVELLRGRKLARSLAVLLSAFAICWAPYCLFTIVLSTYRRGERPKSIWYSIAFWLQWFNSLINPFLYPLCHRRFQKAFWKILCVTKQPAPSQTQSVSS

In one assay the target is T1, Histamine H4 receptor (Homo sapiens, UniProt Q9H3N8). The assay can be described thus: Inverse agonist activity at human histamine H4 receptor expressed in HEK293T cells by CRE-beta-galactosidase assay. Format: functional, cell-based, HEK-293T.
T1 sequence (Q9H3N8 whole entry): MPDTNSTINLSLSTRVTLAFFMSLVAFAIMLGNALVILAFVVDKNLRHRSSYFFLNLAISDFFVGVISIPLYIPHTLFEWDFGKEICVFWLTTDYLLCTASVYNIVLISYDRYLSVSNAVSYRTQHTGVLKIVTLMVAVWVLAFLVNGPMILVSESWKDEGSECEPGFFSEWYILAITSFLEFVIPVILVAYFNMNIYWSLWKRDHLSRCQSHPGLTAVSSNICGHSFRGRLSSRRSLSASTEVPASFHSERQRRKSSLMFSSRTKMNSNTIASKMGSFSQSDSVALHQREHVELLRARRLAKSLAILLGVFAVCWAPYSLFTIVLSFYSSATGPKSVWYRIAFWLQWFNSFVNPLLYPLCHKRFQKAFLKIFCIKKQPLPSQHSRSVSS
By IC50 is commonly meant the concentration at which inhibition is half-maximal. Low readings indicate inhibition by little substance, high ones a need for much substance. In turn, `CN1CCN(c2nc(NCc3ccoc3)c3cc(Cl)ccc3n2)CC1` gave a concentration for half-maximal inhibition (IC50) of 145 nM.

A further assay has as its target T1, Histamine H4 receptor. Nature of the assay: Displacement of [3H]histamine from human histamine H4 receptor expressed in HEK cells. Format: cell-based, HEK293.
What is called Ki is the equilibrium dissociation constant of an inhibitor or competing ligand from its target. Low readings indicate a stronger hold on the target, high ones a looser hold on the target. For `CN1CCN(c2nc(NCc3ccco3)c3cc(F)ccc3n2)CC1`, affinity was put at a Ki of 224 nM. That is a sub-micromolar value.

`CN1CCN(c2nc(NCc3ccco3)c3ccccc3n2)CC1` showed a Ki of 603 nM.

On to `CNc1nc(N2CCN3CCC[C@H]3C2)nc2ccc(Cl)cc12`, for which the inhibitory constant (Ki) was 155 nM.

Compound `CC(C)Nc1nc(N2CCN(C)CC2)nc2ccc(Cl)cc12` gave an inhibition constant Ki of 759 nM.

The compound `CNc1nc(N2CC(C)N(C)C(C)C2)nc2ccc(Cl)cc12` (configuration not stated) gave a Ki above 1000 nM.

`CNc1nc(NCCC2CCN(C)C2)nc2ccc(Cl)cc12` (configuration not stated) showed a Ki above 1000 nM.

Consider `CN1CCN(c2nc(NCCc3ccccc3)c3cc(Cl)ccc3n2)CC1`, for which the affinity, expressed as Ki, was 240 nM.

Regarding `CN1CCN(c2nc(NCc3ccoc3)c3cc(Cl)ccc3n2)CC1`, the affinity corresponds to a Ki of 26.9 nM. Against the preceding compound, the Ki is about 8.9-fold lower.

As to `CNc1nc(N2CC[C@H](NC)C2)nc2ccc(Cl)cc12`, the inhibition constant Ki was above 1000 nM.

In turn, `CN1CCN(c2nc(NCc3ccccc3)c3cc(Cl)ccc3n2)CC1` gave an inhibitory constant (Ki) of 257 nM.

Compound `CN1CCN(c2nc(Oc3ccccc3)c3ccccc3n2)CC1` gave an inhibition constant Ki of 2820 nM.

For the compound `CN1CCN(c2nc(NCc3nccs3)c3cc(Cl)ccc3n2)CC1`, the affinity corresponds to a Ki of 105 nM.

In turn, `CNc1nc(N2C[C@H]3CNC[C@H]3C2)nc2ccc(Cl)cc12` gave a Ki above 1000 nM.

For `CN1CCN(c2nc(Nc3ccccc3)c3ccccc3n2)CC1`, the Ki is 8510 nM.

`Cc1ccc(CNc2nc(N3CCN(C)CC3)nc3ccc(Cl)cc23)o1`: the inhibition constant (Ki) was 135 nM.

`CNc1nc(N2CCCN(C)CC2)nc2ccc(Cl)cc12` showed a Ki above 1000 nM.

Compound `CN1CCN(c2nc(N)c3cc(Cl)ccc3n2)CC1` showed an inhibitory constant (Ki) of 105 nM.

`CN1CCN(c2nc(NCCO)c3cc(Cl)ccc3n2)CC1` gave an inhibition constant (Ki) of 575 nM. Against the preceding compound, the Ki is about 5.5-fold higher.

Regarding `CN1CCN(c2nc3ccc(Cl)cc3nc2OCc2ccccc2)CC1`, the Ki is 269 nM.

As to `CN1CCN(c2nc(NCc3cncs3)c3cc(Cl)ccc3n2)CC1`, the Ki is 107 nM.

For `CNc1nc(N2CC3CCCNC3C2)nc2ccc(Cl)cc12` (configuration not stated), the Ki is above 1000 nM.

`CN1CCN(c2nc(N)c3ccccc3n2)CC1` showed a Ki of 2140 nM.

`CN1CCN(c2nc(OCc3ccccc3)c3ccccc3n2)CC1` had an inhibitory constant (Ki) of 4070 nM.

As for `Cc1csc(CNc2nc(N3CCN(C)CC3)nc3ccc(Cl)cc23)c1`, the affinity corresponds to a Ki of 38.9 nM. This Ki is about 100-fold lower than that of the compound before.

For `CNc1nc(N2CCN(C)CC2)nc2cc(Cl)ccc12`, the affinity corresponds to a Ki of 955 nM.

As to `CNc1nc(NCC2CCN(C)C2)nc2ccc(Cl)cc12` (configuration not stated), the Ki was above 1000 nM.

Turning to `CN1CCN(c2nc(NCc3ccc(C#N)cc3)c3cc(Cl)ccc3n2)CC1`, the affinity corresponds to a Ki of 129 nM.

For the compound `CNc1nc(N2CC[C@@H](N)C2)nc2ccc(Cl)cc12`, the Ki was above 1000 nM.

As to `CNc1nc(N2CCN(C)CC2)nc2cccc(C)c12`, the affinity, expressed as Ki, was 692 nM.

The compound `CNc1nc(N2CCN3CCCC3C2)nc2ccc(Cl)cc12` (configuration not stated) showed a Ki of 141 nM.

As to `CN1CCN(c2nc(NCc3ccsc3)c3cc(Cl)ccc3n2)CC1`, the inhibitory constant (Ki) was 35.5 nM.

`CN1CCN(c2nc(NCc3ccc(N)cc3)c3cc(Cl)ccc3n2)CC1` gave an inhibitory constant (Ki) of 562 nM.

The compound `CN1CCN(c2nc(NCc3ccc(F)cc3)c3cc(Cl)ccc3n2)CC1` gave a Ki of 105 nM. This Ki lies about 5.4-fold lower than the previous one.

For `CNc1nc(N2CCN(C)CC2C)nc2ccc(Cl)cc12` (configuration not stated), the inhibition constant Ki is above 1000 nM.

On to `CN1CCN(c2nc(N(C)C)c3cc(Cl)ccc3n2)CC1`, for which the Ki was 617 nM.

`CCOC(=O)CNc1nc(N2CCN(C)CC2)nc2ccc(Cl)cc12` showed an inhibition constant Ki of 955 nM.

`CN1CCN(c2nc(NCC3CCCCC3)c3cc(Cl)ccc3n2)CC1` gave an inhibition constant (Ki) of 589 nM.

`Cc1ccsc1CNc1nc(N2CCN(C)CC2)nc2ccc(Cl)cc12` had a Ki of 33.9 nM.

Turning to `CN1CCN(c2nc(NCc3ccccc3)c3ccccc3n2)CC1`, the Ki is 1070 nM.

`Cc1noc(CNc2nc(N3CCN(C)CC3)nc3ccc(Cl)cc23)n1` gave an inhibition constant (Ki) of 372 nM.

`CNc1nc(N2CCN(C)CC2)nc2ccc(Cl)cc12` gave a Ki of 70.8 nM.

On to `Cc1cc(Cl)cc2c(NCc3ccco3)nc(N3CCN(C)CC3)nc12`, for which the inhibition constant Ki was 186 nM. This Ki is about 2.6-fold higher than that of the compound before.

With `CN1CCN(c2nc(NCCc3ccccc3)c3ccccc3n2)CC1`, the affinity, expressed as Ki, was 1480 nM. Against the preceding compound, the Ki is about 8-fold higher.

In turn, `CNc1nc(N2CCCC2CN2CCN(C)CC2)nc2ccc(Cl)cc12` (configuration not stated) showed an inhibition constant (Ki) above 1000 nM.

Take `COc1ccc(CNc2nc(N3CCN(C)CC3)nc3ccc(Cl)cc23)cc1`: affinity was put at a Ki of 363 nM.

`CNc1nc(NCC2CCN(C)CC2)nc2ccc(Cl)cc12` had a Ki above 1000 nM.

For the compound `CNc1nc(N2CCC3(CCN(C)CC3)CC2)nc2ccc(Cl)cc12`, the Ki was above 1000 nM.

Regarding `CNc1nc(N2CCC3(CCN(C)C3)C2)nc2ccc(Cl)cc12` (configuration not stated), the Ki was above 1000 nM.

The compound `CN1CCN(c2nc(O)c3cc(Cl)ccc3n2)CC1` had a Ki of 15100 nM.

For `CN1CCN(c2nc(NCCc3cccs3)c3cc(Cl)ccc3n2)CC1`, the inhibition constant Ki was 60.3 nM. This Ki lies about 250-fold lower than the previous one.

Consider `CN1CCN(c2nc(NCc3ccco3)c3cc(Cl)ccc3n2)CC1`, for which the Ki is 89.1 nM.

Compound `CN1CCN(c2nc(NCc3cc4ccccc4s3)c3cc(Cl)ccc3n2)CC1` had a Ki of 269 nM.

Compound `CNc1nc(N2CC[C@H](N)C2)nc2ccc(Cl)cc12` showed a Ki above 1000 nM.

The next assay addresses Histamine H4 receptor (Rattus norvegicus, UniProt Q91ZY1). Nature of the assay: Binding affinity to rat histamine H4 receptor.
Regarding `CN1CCN(c2nc(NCc3ccoc3)c3cc(Cl)ccc3n2)CC1`, the affinity, expressed as Ki, was 24.5 nM.

In turn, `CN1CCN(c2nc(NCc3cccs3)c3cc(Cl)ccc3n2)CC1` showed an inhibitory constant (Ki) of 15.8 nM. This Ki lies about 1.6-fold lower than the previous one.

The target in a further assay is Histamine H1 receptor (Homo sapiens, UniProt P35367). The assay can be described thus: Displacement of [3H]mepyramine from human histamine H1 receptor expressed in NIH3T3 cells. The class given is cell-based.
Sequence of Histamine H1 receptor (P35367 whole entry): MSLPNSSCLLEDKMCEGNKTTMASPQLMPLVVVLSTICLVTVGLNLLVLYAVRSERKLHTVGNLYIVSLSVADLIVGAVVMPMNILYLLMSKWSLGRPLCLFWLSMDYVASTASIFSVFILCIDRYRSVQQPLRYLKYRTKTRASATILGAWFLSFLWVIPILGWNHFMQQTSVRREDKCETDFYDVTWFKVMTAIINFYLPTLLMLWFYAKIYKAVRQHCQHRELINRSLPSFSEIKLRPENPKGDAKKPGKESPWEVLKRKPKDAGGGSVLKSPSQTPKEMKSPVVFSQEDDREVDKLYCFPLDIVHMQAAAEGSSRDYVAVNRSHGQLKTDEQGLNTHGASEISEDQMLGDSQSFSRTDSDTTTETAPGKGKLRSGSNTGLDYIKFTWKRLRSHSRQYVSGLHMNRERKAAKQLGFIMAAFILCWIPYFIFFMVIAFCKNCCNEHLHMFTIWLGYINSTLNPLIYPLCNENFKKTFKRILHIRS
`CN1CCN(c2nc(NCc3ccoc3)c3cc(Cl)ccc3n2)CC1`: the inhibition constant Ki is 97.7 nM.
